Counter-ions that a name gives are not always drawn.
How the values were obtained:
[1] = tested on: Klebsiella pneumoniae expressing KPC-1 (CL6569); experiment: Antibiotic activity: growth inhibitory concentration (OD600), Klebsiella pneumoniae CL6569; assay type: cell-based; settings: lowest concentration inhibiting 95% of bacterial growth; in the presence of β lactamase inhibitor Relebactam 4 μg/mL; 35±2° C. for 22 hours; tested range 100 μM to 0.098 μM
Description: (§1) Antibiotic Activity: Determination of Growth Inhibitory Concentration
(§2) The concentrations of compounds required to inhibit the growth of various strains of bacteria were determined in an assay that assessed bacterial growth by measuring optical density at 600 nm (OD600). The bacterial strains tested included the clinical strains Escherichia coli expressing NDM-1 (CLB30016), Klebsiella pneumoniae expressing KPC-1 (CL6569), Acinetobacter baumannii expressing TEM-1, AmpC, and Oxa-24/40 (CL6188) and Pseudomonas aeruginosa expressing AmpC (CL5701). All compounds were tested in the presence of a β lactamase inhibitor (BLi, Relebactam) in 384-well microplates. The clinical strains were stored as frozen single use stocks, thawed and diluted into 1.1× cation-adjusted Mueller-Hinton II broth to achieve approximately 2×10^5 CFU/mL. Test compounds were dissolved in DMSO and diluted 1:50 in the assay, resulting in a final concentration range of 100 μM to 0.098 μM. On the day of the assay, 1 μL of test compound was added to the plate followed by 4 μL of 50 μg/mL BLi in MOPS buffer and 45 μL of diluted bacteria. Plates were centrifuged at 1000 rpm for 30 seconds, shaken at approximately 800 rpm for 1 minute, and incubated at 35±2° C. for 22 hours. The concentration of BLi used in the assay was 4 μg/mL. At the end of the incubation, absorbance at 600 nm was determined using a spectrophotometer. Inhibition was quantitated by identifying the lowest concentration of test compound that was required to inhibit 95% of the growth of the bacteria. The results for Examples 1-126 are reported in Table I, expressed as the concentration of compound that inhibited 95% of bacterial growth (Minimum Inhibitory Threshold Concentration; MITC95).

[2] = tested on: Pseudomonas aeruginosa expressing AmpC (CL5701); experiment: Antibiotic activity: growth inhibitory concentration (OD600), Pseudomonas aeruginosa CL5701; assay type: cell-based; settings: lowest concentration inhibiting 95% of bacterial growth; in the presence of β lactamase inhibitor Relebactam 4 μg/mL; 35±2° C. for 22 hours; tested range 100 μM to 0.098 μM
Description: as §1, §2

| Compound | KP_CL6569 MITC95 [1] [µM] | PA_CL5701 MITC95 [2] [µM] |
| --- | --- | --- |
| C[n+]1cc(-c2ccc(OC[C@](C)(O/N=C(\C(=O)N[C@@H]3C(=O)N(OS(=O)(=O)O)C3(C)C)c3csc(N)n3)C(=O)O)cc2)cn1CCCN [Example 39, (S)-3-((Z)-2-((((S)-1-(4-(1-(3-aminopropyl)-2-methyl-1H-pyrazol-2-ium-4-yl)phenoxy)-2-carboxypropan-2-yl)oxy)imino)-2-(2-aminothiazol-4-yl)acetamido)-2,2-dimethyl-4-oxoazetidin-1-yl sulfate] | 0.3255 | 3.125 |
| Cn1c(-c2ccc(OC[C@H](O/N=C(\C(=O)N[C@@H]3C(=O)N(OS(=O)(=O)O)C3(C)C)c3csc(N)n3)C(N)=O)cc2)cn(CCCN)c1=N [Example 114, (S)-3-((Z)-2-((((S)-1-amino-3-(4-(1-(3-aminopropyl)-2-imino-3-methyl-2,3-dihydro-1H-imidazol-4-yl)phenoxy)-1-oxopropan-2-yl)oxy)imino)-2-(2-aminothiazol-4-yl)acetamido)-2,2-dimethyl-4-oxoazetidin-1-yl sulfate] | 1.563 | 50 |
| CC1(C)[C@H](NC(=O)/C(=N\O[C@@H](COc2ccc(C(N)CNC3=NCCN3)cc2)C(=O)O)c2csc(N)n2)C(=O)N1OS(=O)(=O)O (stereo partly drawn) [Example 61, (2S)-3-(4-(1-amino-2-((4,5-dihydro-1H-imidazol-2-yl)amino)ethyl)phenoxy)-2-((((Z)-1-(2-aminothiazol-4-yl)-2-(((S)-2,2-dimethyl-4-oxo-1-(sulfooxy)azetidin-3-yl)amino)-2-oxoethylidene)amino)oxy)propanoic acid] | 1.563 | 12.5 |
| C[n+]1c(-c2ccc(OC[C@H](O/N=C(\C(=O)N[C@@H]3C(=O)N(OS(=O)(=O)O)C3(C)C)c3csc(N)n3)C(=O)O)cc2)ccn1CCCN.O=C([O-])C(F)(F)F [Example 18, 1-(3-aminopropyl)-3-(4-((S)-2-((((Z)-1-(2-aminothiazol-4-yl)-2-(((S)-2,2-dimethyl-4-oxo-1-(sulfooxy)azetidin-3-yl)amino)-2-oxo-ethylidene)amino)oxy)-2-carboxyethoxy)phenyl)-2-methyl-1H-pyrazol-2-ium 2,2,2-trifluoroacetate] | 0.3906 | 6.25 |
| C[n+]1cc(-c2ccc(OC[C@H](O/N=C(/C(=O)N[C@@H]3C(=O)N(OS(=O)(=O)[O-])C3(C)C)c3csc(N)n3)C(=O)O)cc2)cn1CCCNC[C@H](O)CO [Example 101, (S)-3-((E)-2-(2-aminothiazol-4-yl)-2-(((S)-1-carboxy-2-(4-(1-(3-(((S)-2,3-dihydroxypropyl)amino)propyl)-2-methyl-1H-pyrazol-2-ium-4-yl)phenoxy)ethoxy)imino)acetamido)-2,2-dimethyl-4-oxoazetidin-1-yl sulfate] | 0.7813 | 12.5 |
| C[n+]1cc(-c2ccc(OC[C@H](O/N=C(\C(=O)N[C@@H]3C(=O)N(OS(=O)(=O)O)C3(C)C)c3csc(N)n3)C(=O)O)cc2F)cn1CCCN [Example 24, (S)-3-((Z)-2-(((S)-2-(4-(1-(3-aminopropyl)-2-methyl-1H-pyrazol-2-ium-4-yl)-3-fluorophenoxy)-1-carboxyethoxy)imino)-2-(2-aminothiazol-4-yl)acetamido)-2,2-dimethyl-4-oxoazetidin-1-yl sulfate] | 0.3906 | 3.125 |
| C[n+]1cc(-c2ccc(OC[C@H](O/N=C(\C(=O)N[C@@H]3C(=O)N(OS(=O)(=O)[O-])C3(C)C)c3csc(N)n3)C(=O)O)cc2)ccc1NCC1(N)CC1 [Example 74, (S)-3-((Z)-2-(((S)-2-(4-(6-(((1-aminocyclopropyl)methyl)amino)-1-methylpyridin-1-ium-3-yl)phenoxy)-1-carboxyethoxy)imino)-2-(2-aminothiazol-4-yl)acetamido)-2,2-dimethyl-4-oxoazetidin-1-yl sulfate] | 0.1953 | 6.25 |
| C[n+]1cc(-c2ccc(OC[C@H](O/N=C(\C(=O)N[C@@H]3C(=O)N(OS(=O)(=O)[O-])C3(C)C)c3csc(N)n3)C(=O)O)cc2)cnc1N(CCN)CC1CNC1 [Example 83, (S)-3-((Z)-2-(((S)-2-(4-(2-((2-aminoethyl)(azetidin-3-ylmethyl)amino)-1-methylpyrimidin-1-ium-5-yl)phenoxy)-1-carboxyethoxy)imino)-2-(2-aminothiazol-4-yl)acetamido)-2,2-dimethyl-4-oxoazetidin-1-yl sulfate] | 0.1953 | 1.563 |
| CC1(C)[C@H](NC(=O)/C(=N\O[C@@H](COc2ccc(-n3cc(CCCN)[n+](CC4(F)CNC4)c3)nc2)C(=O)O)c2csc(N)n2)C(=O)N1OS(=O)(=O)[O-] [Example 124, (S)-3-((Z)-2-(((S)-2-((6-(4-(3-aminopropyl)-3-((3-fluoroazetidin-3-yl)methyl)-1H-imidazol-3-ium-1-yl)pyridin-3-yl)oxy)-1-carboxyethoxy)imino)-2-(2-aminothiazol-4-yl)acetamido)-2,2-dimethyl-4-oxoazetidin-1-yl sulfate] | 0.7813 | 12.5 |
| Cn1c(-c2ccc(OC[C@H](O/N=C(\C(=O)N[C@@H]3C(=O)N(OS(=O)(=O)O)C3(C)C)c3csc(N)n3)C(=O)O)cc2)cn(CC(O)CN)c1=N (single isomer, unassigned) [Example 56] | 0.3906 | 3.125 |
| CC1(C)[C@H](NC(=O)/C(=N\O[C@@H](COc2ccc(-c3cn(CCCN)[n+](CCCN)c3)cc2)C(=O)O)c2csc(N)n2)C(=O)N1OS(=O)(=O)[O-] [Example 54, (S)-3-((Z)-2-(2-aminothiazol-4-yl)-2-(((S)-2-(4-(1,2-bis(3-aminopropyl)-1H-pyrazol-2-ium-4-yl)phenoxy)-1-carboxyethoxy)imino)acetamido)-2,2-dimethyl-4-oxoazetidin-1-yl sulfate] | 0.09766 | 1.563 |
| CC1(C)[C@H](NC(=O)/C(=N\O[C@@H](COc2ccc(-c3cn(CCCN)[n+](CC(F)CN)c3)cc2)C(=O)O)c2csc(N)n2)C(=O)N1OS(=O)(=O)[O-] (single isomer, unassigned) [Example 120] | 0.1953 | 3.125 |
| CC1(C)[C@H](NC(=O)/C(=N\O[C@@H](COc2ccc(-c3cn(CCCN)c(N)n3)cc2)C(=O)O)c2csc(N)n2)C(=O)N1OS(=O)(=O)O.O=C(O)C(F)(F)F [Example 31, 3-(2-amino-4-(4-((S)-2-((((Z)-1-(2-aminothiazol-4-yl)-2-(((S)-2,2-dimethyl-4-oxo-1-(sulfooxy)azetidin-3-yl)amino)-2-oxoethylidene)amino)oxy)-2-carboxyethoxy)phenyl)-1H-imidazol-1-yl)propan-1-aminium 2,2,2-trifluoroacetate] | 0.3906 | 3.125 |
| C[n+]1cc(-c2ccc(OC[C@@](C)(O/N=C(\C(=O)N[C@@H]3C(=O)N(OS(=O)(=O)O)C3(C)C)c3nc(N)sc3Cl)C(=O)O)cc2)cn1CCCN [Example 51B, (S)-3-((Z)-2-(2-amino-5-chlorothiazol-4-yl)-2-((((R)-1-(4-(1-(3-aminopropyl)-2-methyl-1H-pyrazol-2-ium-4-yl)phenoxy)-2-carboxypropan-2-yl)oxy)imino)acetamido)-2,2-dimethyl-4-oxoazetidin-1-yl sulfate] | 6.25 | 25 |
| CC(CN)Nc1ccc(-c2ccc(OC[C@H](O/N=C(\C(=O)N[C@@H]3C(=O)N(OS(=O)(=O)[O-])C3(C)C)c3csc(N)n3)C(=O)O)cc2)c[n+]1C (stereo partly drawn) [Example 75, (3S)-3-((Z)-2-(((1S)-2-(4-(6-((1-aminopropan-2-yl)amino)-1-methylpyridin-1-ium-3-yl)phenoxy)-1-carboxyethoxy)imino)-2-(2-aminothiazol-4-yl)acetamido)-2,2-dimethyl-4-oxoazetidin-1-yl sulfate] | 0.1953 | 3.125 |
| C[n+]1cc(-c2ccc(OC[C@H](O/N=C(\C(=O)N[C@@H]3C(=O)N(OS(=O)(=O)[O-])C3(C)C)c3csc(N)n3)C(=O)O)cc2F)cn1C[C@@H](O)CN.O=CO (single isomer, unassigned) [Example 43] | 0.1953 | 3.125 |
| C[n+]1ccc(-c2ccc(OC[C@H](O/N=C(\C(=O)N[C@@H]3C(=O)N(OS(=O)(=O)[O-])C3(C)C)c3csc(N)n3)C(=O)O)cc2)cc1NCCN [Example 62, (S)-3-((Z)-2-(((S)-2-(4-(2-((2-aminoethyl)amino)-1-methylpyridin-1-ium-4-yl)phenoxy)-1-carboxyethoxy)imino)-2-(2-aminothiazol-4-yl)acetamido)-2,2-dimethyl-4-oxoazetidin-1-yl sulfate] | 0.36 | 5.8 |
